Patent US20230303539A1, “IMMUNOREGULATORY COMPOUND AND ANTITUMOR APPLICATION THEREOF” (SHANGHAITECH UNIVERSITY, priority 2020, published 2023)

Experiments:
Assay type in all cases: cell-based
[1] = tested on: multiple myeloma cancer cells MM.1S; assay: Cell proliferation inhibition (cell viability, CCK-8) in MM.1S; conditions: Homo sapiens, MM1.S; MM.1S cells, 72 h treatment, CCK-8 cell viability
Description: (§1) The tested cell lines used were: Multiple myeloma cell line MM.1S, human Burkitt's lymphoma cell line Daudi, human acute promyelocytic leukemia cell line NB4, human mantle cell lymphoma cell line JEKO-1, human B-cell lymphoma cell line SU-DHL-4, human mantle cell lymphoma cell line Mino, human diffuse large B-cell lymphoma cell line TMD8, human B-cell lymphoma cell line DOHH2, PBMCs cell and human diffuse large B-cell lymphoma cell line WSU-DLCL2, which were purchased from ATCC (American type Culture Collection) or Cell Bank/Stem Cell Bank, Chinese Academy of Sciences. The medium was RPMI1640 supplemented with 10% FBS (fetal calf serum) and 1% Penicillin-Streptomycin. The cells used were identified as correct cells by STR cells, and were negative for mycoplasma through routine inspections.
(§2) IC50 values of the compounds of the present disclosure (including the compounds in Table 1 and compounds of examples 1-23) were measured using Cell Titer Blue, Cell Titer GLO, or WST reagent from Promega Company. Assay details are as follows: Cells were seeded in 100 μL RPMI1640 medium containing serum at a density of 15,000 cells/well. After 24 h, the inoculated cells were treated with diluted commercial inhibitor and the compounds of the present disclosure to be tested after serial dilution. After the cells were treated with the compounds of the present disclosure to be tested for 72 h, cell viability was determined after adding the cell viability detection kit listed above according to the reagent operating instructions. The negative control was DMSO, and the positive control was a commercial inhibitor, both of which were used to treat the cells through the same method as that of the compounds of the present disclosure. The growth inhibition of the compounds of the present disclosure on cells was plotted by Prism Graphpad software, and the IC50 values of the compounds of the present disclosure were calculated therefrom.
(§3) We tested the activities of the compounds of the present invention (including the compounds in Table 1 and Examples 1-23 compounds) in multiple myeloma cancer cells MM.1S cell and B lymphoma cells Daudi through a dose-dependent manner. The cells were treated with the compounds of the present invention at 10 different successively decreasing concentrations (starting at the highest concentration of […]; 5-fold serial dilutions) for 72 h, and then the cell viability determination was performed in accordance with CCK-8 reagent operating instructions.

B lymphoma cells Daudi = assay: Cell proliferation inhibition (cell viability, CCK-8) in Daudi; conditions: Homo sapiens, 72 h treatment, CCK-8 cell viability
Description: as §1, §2, §3

TNF-α = TNF-α inhibition in LPS-stimulated PBMC cells (ELISA); conditions: LPS 1 ng/ml, 18-20 h, FIG. 2
Experimental: PBMC cells were cultured at 37° C. in 5% CO2 atmosphere, and then seeded in 96-well plates at […]. […] Cells were incubated in medium with or without compounds for 1 h, then stimulated with lipopolysaccharide (LPS; 1 ng/ml), and continually cultured for 18-20 h. Then, the supernatant was collected, diluted with serum-free medium, and tested for TNF-α level by ELISA kit. IC50 was then calculated by Graphpad Prism 7.0. Down-regulation of TNF-α expression is an important way of anti-tumor effect of immunomodulators.

[2] = tested on: human mantle cell lymphoma cell line Mino; assay: Cell proliferation inhibition (CCK-8) in Mino; conditions: MINO cells, 72 h treatment, read-out: IC50 (half inhibitory concentration) in tumor cells, MINO
Description: as §1, with “The cells used were identified as correct cells by STR cells, and were negative for mycoplasma through routine inspections.” left out
(§4) IC50 values of the compounds of the present disclosure (including the compounds in Table 1 and compounds of examples 1-23) were measured using Cell Titer Blue, Cell Titer GLO, or WST reagent from Promega Company. […] After the cells were treated with the compounds of the present disclosure to be tested for 72 h, cell viability was determined after adding the cell viability detection kit listed above according to the reagent operating instructions. […] The growth inhibition of the compounds of the present disclosure on cells was plotted by Prism Graphpad software, and the IC50 values of the compounds of the present disclosure were calculated therefrom. […]

[3] = tested on: human diffuse large B-cell lymphoma cell line WSU-DLCL2; assay: Cell proliferation inhibition (CCK-8) in WSU-DLCL2; conditions: WSUDLCL2, WSU-DLCL2 cells, 72 h treatment, read-out: IC50 (half inhibitory concentration) in tumor cells, WSU-DLCL2
Description: as §1, with “The cells used were identified as correct cells by STR cells, and were negative for mycoplasma through routine inspections.” left out
as §4

[4] = tested on: human B-cell lymphoma cell line DOHH2; assay: Cell proliferation inhibition (CCK-8) in DOHH2; conditions: DOHH-2, DOHH2 cells, 72 h treatment, read-out: IC50 (half inhibitory concentration) in tumor cells, DOHH2
Description: as §1, with “The cells used were identified as correct cells by STR cells, and were negative for mycoplasma through routine inspections.” left out
as §4

[5] = tested on: human diffuse large B-cell lymphoma cell line TMD8; assay: Cell proliferation inhibition (CCK-8) in TMD8; conditions: TMD8 cells, 72 h treatment, read-out: IC50 (half inhibitory concentration) in tumor cells, TMD8
Description: as §1, with “The cells used were identified as correct cells by STR cells, and were negative for mycoplasma through routine inspections.” left out
as §4

SMILES	IC50 [1] [nM]	IC50 (B lymphoma cells Daudi) [nM]	also measured
Cc1nc2cccc(NCc3ccccc3F)c2c(=O)n1C1CCC(=O)NC1=O (stereo not drawn) [SIAIS264123, 3-(5-((2-fluorobenzyl)amino)-2-methyl-4-oxoquinazolin-3(4H)-yl)piperidine-2,6-dione]	57.5 ± 11.5	322 ± 22.1	
Cc1nc2cccc(NCc3ccc(CNC45CC6CC(CC(C6)C4)C5)cc3F)c2c(=O)n1C1CCC(=O)NC1=O (stereo not drawn) [SIAIS355049, 3-(5-((4-((adamantan-1-ylamino)methyl)-2-fluorobenzyl)amino)-2-methyl-4-oxoquinazolin-3(4H)-yl)piperidine-2,6-dione]	5.61 ± 2.41	82.9 ± 25.9	
Cc1nc2cccc(NCC3CCC(C(=O)NC45CC6CC(CC(C6)C4)C5)CC3)c2c(=O)n1C1CCC(=O)NC1=O (stereo not drawn) [SIAIS313068, N-((3s,5s,7s)-adamantan-1-yl)-4-(((3-(2,6-dioxopiperidin-3-yl)-2-methyl-4-oxo-3,4-dihydroquinazolin-5-yl)amino)methyl)cyclohexanecarboxamide]	83.7 ± 2.79	492 ± 33.2	
Cc1nc2cccc(NCc3ccc4c(c3)OCO4)c2c(=O)n1C1CCC(=O)NC1=O (stereo not drawn) [SIAIS264177, 3-(5-((benzo[d][1,3]dioxol-5-ylmethyl)amino)-2-methyl-4-oxoquinazolin-3(4H)-yl)piperidine-2,6-dione]	34.7 ± 5.29	222 ± 40.9	
Cc1nc2cccc(NCCc3ccccc3)c2c(=O)n1C1CCC(=O)NC1=O (stereo not drawn) [SIAIS264103, 3-(2-methyl-4-oxo-5-(phenethylamino)quinazolin-3(4H)-yl)piperidine-2,6-dione]	87.3 ± 5.18	826 ± 37.3	
Cc1nc2cccc(NCc3ccc(CN4CCCCCC4)cc3)c2c(=O)n1C1CCC(=O)NC1=O (stereo not drawn) [SIAIS313087, 3-(5-((4-(azepan-1-ylmethyl)benzyl)amino)-2-methyl-4-oxoquinazolin-3(4H)-yl)piperidine-2,6-dione]	4.82 ± 2.36	43.5 ± 17.9	inhibition of the level of TNF-α (in words) (TNF-α): better inhibitory activities than CC-122
Cc1nc2cccc(NCc3ccc(CNC45CC6CC(CC(C6)C4)C5)cn3)c2c(=O)n1C1CCC(=O)NC1=O (stereo not drawn) [SIAIS355068, 3-(5-(((5-(((adamantan-1-yl)amino)methyl)pyridin-2-yl)methyl)amino)-2-methyl-4-oxoquinazolin-3(4H)-yl)piperidine-2,6-dione]	37.7 ± 12.1	139 ± 22	
Cc1nc2cccc(NCc3ccc(CN4CCOCC4)cc3)c2c(=O)n1C1CCC(=O)NC1=O (stereo not drawn) [SIAIS264067, 3-(2-methyl-5-((4-(morpholinomethyl)benzyl)amino)-4-oxoquinazolin-3(4H)-yl)piperidine-2,6-dione]	8.59 ± 1.32	54.6 ± 7.35	inhibition of the level of TNF-α (in words) (TNF-α): better inhibitory activities than CC-122
Cc1nc2cccc(NCc3ccc(CNC45CC6CC(CC(C6)C4)C5)cc3)c2c(=O)n1C1CCC(=O)NC1=O [SIAIS264156, 3-(5-((4-(((1R,3R,5S)-adamantan-1-ylamino)methyl)benzyl)amino)-2-methyl-4-oxoquinazolin-3(4H)-yl)piperidine-2,6-dione]	9.64 ± 0.83	44.8 ± 19.6	
Cc1nc2cccc(N)c2c(=O)n1C1CCC(=O)NC1=O (stereo not drawn) [CC-122, Avadomide, reference compound]	21.8 ± 4.3	158 ± 9.48	IC50 [2]: 55 nM; IC50 [3]: > 1000 nM; IC50 [4]: > 1000 nM; IC50 [5]: 492 nM; inhibition of the level of TNF-α (in words) (TNF-α): the level of TNF-α was inhibited in a dose-dependent manner
Cc1nc2cccc(NCc3ccc(CN4CCCCC4)cc3)c2c(=O)n1C1CCC(=O)NC1=O (stereo not drawn) [SIAIS313069, 3-(2-methyl-4-oxo-5-((4-(piperidin-1-ylmethyl)benzyl)amino)quinazolin-3(4H)-yl)piperidine-2,6-dione]	21.5 ± 5.84	129 ± 18.8	
Cc1nc2cccc(NCc3ccc(CN4CCSCC4)cc3)c2c(=O)n1C1CCC(=O)NC1=O (stereo not drawn) [SIAIS313074, 3-(2-methyl-4-oxo-5-((4-(thiomorpholinomethyl)benzyl)amino)quinazolin-3(4H)-yl)piperidine-2,6-dione]	10.6 ± 1.95	58.7 ± 22.4	inhibition of the level of TNF-α (in words) (TNF-α): better inhibitory activities than CC-122
Cc1nc2cccc(NCc3ccc(CNC4C5CC6CC(C5)CC4C6)cc3)c2c(=O)n1C1CCC(=O)NC1=O [SIAIS264172, 3-(5-((4-(((1R,2s,3S,5r)-adamantan-2-ylamino)methyl)benzyl)amino)-2-methyl-4-oxoquinazolin-3(4H)-yl)piperidine-2,6-dione]	2.52 ± 0.68		
Cc1nc2cccc(NCc3ccc(CN4CCCCCC4)cn3)c2c(=O)n1C1CCC(=O)NC1=O (stereo not drawn) [SIAIS355062, 3-(5-(((5-(azepan-1-ylmethyl)pyridin-2-yl)methyl)amino)-2-methyl-4-oxoquinazolin-3(4H)-yl)piperidine-2,6-dione]	22.1 ± 12	105 ± 19.9	
Cc1nc2cccc(NCc3ccc(CN4CC(C)CC(C)C4)cc3)c2c(=O)n1C1CCC(=O)NC1=O (stereo not drawn) [SIAIS313075, 3-(5-((4-((3,5-dimethylpiperidin-1-yl)methyl)benzyl)amino)-2-methyl-4-oxoquinazolin-3(4H)-yl)piperidine-2,6-dione]	16.4 ± 2.82	131 ± 27.6	
Cc1nc2cccc(NCc3ccc(CO)cc3)c2c(=O)n1C1CCC(=O)NC1=O (stereo not drawn) [SIAIS313055, 3-(5-((4-(hydroxymethyl)benzyl)amino)-2-methyl-4-oxoquinazolin-3(4H)-yl)piperidine-2,6-dione]	36.4 ± 6.74	166 ± 14.7	
